We go through 1 molecule from ChEMBL document CHEMBL5723583, “Data for DCP probe BAY-9835” (2024).

Bounds are passed on as bounds.

The target in assay [1] is A disintegrin and metalloproteinase with thrombospondin motifs 4 (Homo sapiens, UniProt O75173). Nature of the assay: Biochemical enzymatic FRET assay (hADAMTS4) ( FRET substrate, HiLyteFluor-488 DELSSMVLELRGLRT-K(QXL520)-E-NH2 (custom synthesis by Anaspec) was used.).
The target of assay [2] is A disintegrin and metalloproteinase with thrombospondin motifs 7 (Homo sapiens, UniProt Q9UKP4). Nature of the assay: Biochemical enzymatic FRET assay (hADAMTS7) ( FRET substrate, HiLyteFluor-488 DELSSMVLELRGLRT-K(QXL520)-E-NH2 (custom synthesis by Anaspec) was used.).
Chain of A disintegrin and metalloproteinase with thrombospondin motifs 7 (Q9UKP4 whole entry): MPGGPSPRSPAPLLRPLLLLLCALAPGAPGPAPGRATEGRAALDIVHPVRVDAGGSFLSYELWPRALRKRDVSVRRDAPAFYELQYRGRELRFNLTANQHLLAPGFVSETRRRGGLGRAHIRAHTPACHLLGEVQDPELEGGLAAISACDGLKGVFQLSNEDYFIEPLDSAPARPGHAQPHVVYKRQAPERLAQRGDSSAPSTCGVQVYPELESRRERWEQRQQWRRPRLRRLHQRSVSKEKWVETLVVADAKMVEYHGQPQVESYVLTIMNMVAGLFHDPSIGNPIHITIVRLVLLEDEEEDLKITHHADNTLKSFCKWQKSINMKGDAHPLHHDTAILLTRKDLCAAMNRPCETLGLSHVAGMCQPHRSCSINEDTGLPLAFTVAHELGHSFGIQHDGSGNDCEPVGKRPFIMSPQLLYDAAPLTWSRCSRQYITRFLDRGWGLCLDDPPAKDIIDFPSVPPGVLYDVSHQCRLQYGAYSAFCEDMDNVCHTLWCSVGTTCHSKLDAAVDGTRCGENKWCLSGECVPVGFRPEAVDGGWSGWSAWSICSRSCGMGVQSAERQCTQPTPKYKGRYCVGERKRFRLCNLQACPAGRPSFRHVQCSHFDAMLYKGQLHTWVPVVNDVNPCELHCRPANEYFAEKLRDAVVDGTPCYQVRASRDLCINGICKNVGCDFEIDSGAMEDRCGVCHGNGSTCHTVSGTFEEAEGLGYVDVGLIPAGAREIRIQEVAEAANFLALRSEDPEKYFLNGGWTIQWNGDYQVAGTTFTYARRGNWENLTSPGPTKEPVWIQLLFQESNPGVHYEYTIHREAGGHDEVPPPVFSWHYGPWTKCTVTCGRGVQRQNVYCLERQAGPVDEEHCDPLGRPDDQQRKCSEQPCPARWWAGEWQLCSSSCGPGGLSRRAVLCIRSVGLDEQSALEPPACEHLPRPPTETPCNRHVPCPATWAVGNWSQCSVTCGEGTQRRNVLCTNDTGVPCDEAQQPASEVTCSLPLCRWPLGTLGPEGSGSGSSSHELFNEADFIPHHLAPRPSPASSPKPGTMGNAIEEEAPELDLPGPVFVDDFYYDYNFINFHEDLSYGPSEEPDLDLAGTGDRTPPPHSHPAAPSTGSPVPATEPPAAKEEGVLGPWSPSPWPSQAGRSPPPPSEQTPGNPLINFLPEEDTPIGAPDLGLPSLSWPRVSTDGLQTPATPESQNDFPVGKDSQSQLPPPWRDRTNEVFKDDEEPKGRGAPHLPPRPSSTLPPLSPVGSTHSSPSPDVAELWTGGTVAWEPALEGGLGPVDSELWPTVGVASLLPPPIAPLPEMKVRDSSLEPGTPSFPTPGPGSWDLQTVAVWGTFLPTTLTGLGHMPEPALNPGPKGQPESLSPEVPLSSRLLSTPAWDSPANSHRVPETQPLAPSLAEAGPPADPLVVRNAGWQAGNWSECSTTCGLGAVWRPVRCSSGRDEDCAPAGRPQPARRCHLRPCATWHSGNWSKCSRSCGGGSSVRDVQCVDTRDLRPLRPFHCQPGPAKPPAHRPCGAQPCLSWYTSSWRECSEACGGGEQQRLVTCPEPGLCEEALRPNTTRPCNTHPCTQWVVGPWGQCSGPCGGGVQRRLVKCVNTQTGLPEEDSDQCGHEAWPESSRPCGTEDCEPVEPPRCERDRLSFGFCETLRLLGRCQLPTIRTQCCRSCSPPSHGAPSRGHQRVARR

Chain of A disintegrin and metalloproteinase with thrombospondin motifs 4 (O75173 whole entry): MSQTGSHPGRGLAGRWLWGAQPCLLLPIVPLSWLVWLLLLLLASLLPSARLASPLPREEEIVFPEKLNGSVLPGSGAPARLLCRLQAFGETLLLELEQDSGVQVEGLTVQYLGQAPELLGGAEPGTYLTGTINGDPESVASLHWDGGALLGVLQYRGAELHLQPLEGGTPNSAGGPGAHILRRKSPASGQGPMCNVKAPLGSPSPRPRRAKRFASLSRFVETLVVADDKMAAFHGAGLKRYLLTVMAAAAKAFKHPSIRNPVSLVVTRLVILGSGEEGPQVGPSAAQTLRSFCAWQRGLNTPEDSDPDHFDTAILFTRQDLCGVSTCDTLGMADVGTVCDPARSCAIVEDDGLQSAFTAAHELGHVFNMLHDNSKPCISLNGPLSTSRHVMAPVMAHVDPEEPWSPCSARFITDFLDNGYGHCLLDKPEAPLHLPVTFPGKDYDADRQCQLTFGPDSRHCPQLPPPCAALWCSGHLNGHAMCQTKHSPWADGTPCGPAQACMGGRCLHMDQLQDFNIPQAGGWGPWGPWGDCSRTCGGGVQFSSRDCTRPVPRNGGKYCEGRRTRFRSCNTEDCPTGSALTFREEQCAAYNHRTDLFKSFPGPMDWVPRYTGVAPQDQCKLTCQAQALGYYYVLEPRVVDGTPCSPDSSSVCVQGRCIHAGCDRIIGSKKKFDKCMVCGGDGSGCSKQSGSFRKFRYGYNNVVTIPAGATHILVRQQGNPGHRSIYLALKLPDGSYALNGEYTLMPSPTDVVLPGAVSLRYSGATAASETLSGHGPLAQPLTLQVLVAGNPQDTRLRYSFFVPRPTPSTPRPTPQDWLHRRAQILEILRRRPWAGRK

Consider `Cn1nccc1[C@@]1(CNC(=O)c2ccc(F)cc2-c2ccc(C(F)(F)F)cc2)NC(=O)NC1=O`, for which the IC50 in assay [1] is recorded as > 50 µM (not active); in assay [2], 23.4 µM (not active).

By IC50 is commonly meant the concentration needed to halve the response being measured. A low value points to greater potency in that assay.
